We go through 27 compounds from PMC12155096 (International Journal of Molecular Sciences, 2025).

Data set [1] addresses T1, human CYP2C19 (Homo sapiens, UniProt P33261).
The target in data set [2] is human CYP2D6 (Homo sapiens, UniProt P10635).
The target in data set [3] is CYP3A4 (Homo sapiens, UniProt P08684).
The target in data set [4] is T2, human CYP1A2 (Homo sapiens, UniProt P05177).
T2 sequence (P05177 1-516): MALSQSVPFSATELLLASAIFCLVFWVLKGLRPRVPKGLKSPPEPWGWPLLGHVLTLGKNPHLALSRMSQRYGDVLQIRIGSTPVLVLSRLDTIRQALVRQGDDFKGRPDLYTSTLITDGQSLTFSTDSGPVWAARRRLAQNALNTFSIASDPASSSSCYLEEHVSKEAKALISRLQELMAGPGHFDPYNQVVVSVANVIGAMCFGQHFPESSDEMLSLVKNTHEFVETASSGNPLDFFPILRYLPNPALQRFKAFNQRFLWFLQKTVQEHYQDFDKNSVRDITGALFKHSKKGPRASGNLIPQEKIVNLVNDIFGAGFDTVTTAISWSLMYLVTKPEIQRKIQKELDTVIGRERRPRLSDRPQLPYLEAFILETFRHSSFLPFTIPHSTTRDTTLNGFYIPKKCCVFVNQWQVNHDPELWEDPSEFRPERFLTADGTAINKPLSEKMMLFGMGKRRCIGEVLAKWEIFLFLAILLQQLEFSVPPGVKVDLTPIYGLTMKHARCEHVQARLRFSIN
The experiment in a line: biochemical.

In data set [5] the target is T3, human CYP2C9 (Homo sapiens, UniProt P11712). As to the kind of experiment: biochemical.
T3 sequence (P11712 whole entry): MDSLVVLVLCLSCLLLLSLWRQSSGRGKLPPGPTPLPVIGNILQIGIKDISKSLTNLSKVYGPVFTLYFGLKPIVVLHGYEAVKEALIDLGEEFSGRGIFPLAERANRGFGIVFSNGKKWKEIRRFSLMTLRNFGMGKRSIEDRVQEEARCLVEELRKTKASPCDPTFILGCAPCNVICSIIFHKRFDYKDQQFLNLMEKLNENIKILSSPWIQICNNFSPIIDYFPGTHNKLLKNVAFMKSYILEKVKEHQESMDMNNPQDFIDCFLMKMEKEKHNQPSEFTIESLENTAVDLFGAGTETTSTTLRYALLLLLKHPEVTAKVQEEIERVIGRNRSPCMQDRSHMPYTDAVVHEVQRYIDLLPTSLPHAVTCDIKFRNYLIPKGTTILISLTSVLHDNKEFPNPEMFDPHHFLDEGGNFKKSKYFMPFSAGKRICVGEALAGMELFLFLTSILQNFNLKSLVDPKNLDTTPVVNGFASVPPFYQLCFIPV
In data set [6] the target is T1, human CYP2C19. As to the kind of experiment: biochemical.
In data set [7] the target is T3, human CYP2C9.
The target in data set [8] is Photinus pyralis (firefly) luciferase (Photinus pyralis, UniProt P08659). As to the kind of experiment: biochemical. Format: biochemical.
Photinus pyralis (firefly) luciferase, sequence (P08659 whole entry): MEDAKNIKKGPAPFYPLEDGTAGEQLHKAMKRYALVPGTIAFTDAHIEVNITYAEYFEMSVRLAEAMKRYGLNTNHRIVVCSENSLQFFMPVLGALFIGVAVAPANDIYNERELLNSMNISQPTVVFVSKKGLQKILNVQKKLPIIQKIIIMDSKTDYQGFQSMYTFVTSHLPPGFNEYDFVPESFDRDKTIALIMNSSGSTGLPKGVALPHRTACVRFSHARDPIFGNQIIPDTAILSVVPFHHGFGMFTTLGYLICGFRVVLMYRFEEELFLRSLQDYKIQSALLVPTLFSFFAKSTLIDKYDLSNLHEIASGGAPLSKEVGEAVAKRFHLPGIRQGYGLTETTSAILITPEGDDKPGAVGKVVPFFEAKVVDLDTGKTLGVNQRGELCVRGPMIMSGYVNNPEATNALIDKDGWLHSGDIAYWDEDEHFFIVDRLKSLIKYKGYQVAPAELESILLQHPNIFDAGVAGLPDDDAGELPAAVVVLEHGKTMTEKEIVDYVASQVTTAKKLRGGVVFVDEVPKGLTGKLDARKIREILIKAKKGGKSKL
Setting [9] is: CYP1A2 AC50 (half-maximal activity concentration).
Where [10] appears, read: CYP2C9 AC50 (half-maximal activity concentration).
Where [11] appears, read: CYP2C19 AC50 (half-maximal activity concentration).

Each structure is given as a SMILES string. Like-named read-outs stand apart in the source and are kept apart here.

CYP3A4, sequence (P08684 whole entry): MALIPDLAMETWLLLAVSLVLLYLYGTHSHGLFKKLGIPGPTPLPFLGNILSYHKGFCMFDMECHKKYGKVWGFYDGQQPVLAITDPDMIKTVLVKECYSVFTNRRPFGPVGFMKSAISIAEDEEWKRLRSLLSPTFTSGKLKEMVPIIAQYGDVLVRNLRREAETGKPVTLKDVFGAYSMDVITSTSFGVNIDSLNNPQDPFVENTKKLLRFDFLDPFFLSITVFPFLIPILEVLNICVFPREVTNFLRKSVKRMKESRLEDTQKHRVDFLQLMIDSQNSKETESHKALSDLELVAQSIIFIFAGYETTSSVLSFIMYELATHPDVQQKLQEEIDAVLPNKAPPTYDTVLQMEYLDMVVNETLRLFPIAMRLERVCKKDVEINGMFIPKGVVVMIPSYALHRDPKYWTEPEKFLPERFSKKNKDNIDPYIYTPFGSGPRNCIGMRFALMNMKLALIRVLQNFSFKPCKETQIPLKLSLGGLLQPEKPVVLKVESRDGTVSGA
T1 sequence (P33261 whole entry): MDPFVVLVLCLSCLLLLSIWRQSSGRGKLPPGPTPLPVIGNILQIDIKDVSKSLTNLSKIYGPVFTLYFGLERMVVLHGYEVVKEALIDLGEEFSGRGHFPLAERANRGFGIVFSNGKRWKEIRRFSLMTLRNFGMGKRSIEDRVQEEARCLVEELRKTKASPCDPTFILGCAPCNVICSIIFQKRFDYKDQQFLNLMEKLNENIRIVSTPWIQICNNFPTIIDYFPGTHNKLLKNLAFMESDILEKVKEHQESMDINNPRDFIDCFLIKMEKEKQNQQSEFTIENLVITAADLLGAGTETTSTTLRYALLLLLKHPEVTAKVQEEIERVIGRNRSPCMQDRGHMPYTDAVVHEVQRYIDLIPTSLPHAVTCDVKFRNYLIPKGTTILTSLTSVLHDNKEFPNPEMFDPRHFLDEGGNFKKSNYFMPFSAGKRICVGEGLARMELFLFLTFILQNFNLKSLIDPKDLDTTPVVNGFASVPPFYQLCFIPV
human CYP2D6, sequence (P10635 whole entry): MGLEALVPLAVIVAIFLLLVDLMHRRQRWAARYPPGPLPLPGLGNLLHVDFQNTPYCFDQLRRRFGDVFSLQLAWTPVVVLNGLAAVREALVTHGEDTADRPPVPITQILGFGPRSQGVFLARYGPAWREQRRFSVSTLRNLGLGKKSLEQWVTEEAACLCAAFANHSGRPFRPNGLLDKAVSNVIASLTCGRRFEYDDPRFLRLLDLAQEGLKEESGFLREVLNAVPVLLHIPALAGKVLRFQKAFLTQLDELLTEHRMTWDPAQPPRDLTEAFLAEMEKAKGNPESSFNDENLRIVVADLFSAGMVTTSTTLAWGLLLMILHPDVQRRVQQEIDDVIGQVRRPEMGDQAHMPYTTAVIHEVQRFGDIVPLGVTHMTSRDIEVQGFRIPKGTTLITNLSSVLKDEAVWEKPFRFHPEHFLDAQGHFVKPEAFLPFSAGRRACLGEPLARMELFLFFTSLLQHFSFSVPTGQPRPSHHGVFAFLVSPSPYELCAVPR

For `Oc1cc(Cl)c(Cl)cc1Cl` [2,4,5-Trichlorophenol], the “CYP2C19 AC50 (half-maximal activity concentration)” value (“CYP2C19 AC50” for short) in data set [1] is listed as “Inconclusive inhibitor”. In addition, in data set [2], the “CYP2D6 AC50 (half-maximal activity concentration)” value (“CYP2D6 AC50” for short) is recorded as “Inactive”. Besides, the “CYP3A4 AC50 (half-maximal activity concentration)” value (shortened to “CYP3A4 AC50”) in data set [3] is “Inactive”. Moreover, the AC50 in data set [4] (setting [9]) was found to be 20.8 µM; in data set [5] (setting [10]), 22.4 µM.
As to `Oc1cc(Cl)ccc1Cl` [2,5-Dichlorophenol], in data set [1], the “CYP2C19 AC50” value is recorded as “Inconclusive inhibitor”. The “CYP2D6 AC50” value in data set [2] is recorded as “Inactive”. For the same compound, the “CYP3A4 AC50” value in data set [3] is reported as “Inactive”. The figures for the AC50 in data set [4] (setting [9]) and in data set [5] (setting [10]) were 33.9 µM and 32.8 µM, respectively.
Regarding `Nc1c(Br)cc([N+](=O)[O-])cc1Br` [2,6-Dibromo-4-nitroaniline], in data set [2], the “CYP2D6 AC50” value is listed as “Inactive”. In addition, in data set [3], the “CYP3A4 AC50” value was “Inactive”. Also, the values for the AC50 in data set [4] (setting [9]), in data set [5] (setting [10]) and in data set [6] (setting [11]) were 1.27 µM, 18.1 µM and 43.1 µM, respectively.
As for `CCC(C)c1ccccc1O` (centres unmarked) [2-(Butan-2-yl)phenol], the “CYP2D6 AC50” value in data set [2] is “Inactive”. For the same compound, the “CYP3A4 AC50” value in data set [3] is reported as “Inconclusive inhibitor”. Further, the AC50 in data set [4] (setting [9]) was 38.5 µM; in data set [5] (setting [10]) it was 53.2 µM; in data set [6] (setting [11]), 9.46 µM.
As for `CCOc1ccccc1C(N)=O` [2-Ethoxybenzamide], the “CYP2C19 AC50” value in data set [1] is on record as “Inactive”. The “CYP2D6 AC50” value in data set [2] is reported as “Inactive”. For the same compound, the “CYP3A4 AC50” value in data set [3] is “Inactive”. Moreover, the AC50 was found to be 16.8 ± 1.09 µM in data set [4] and 31 ± 3.57 µM in data set [5].
`CC(C)c1ccccc1O` [2-Isopropylphenol]: the “CYP2C9 AC50 (half-maximal activity concentration)” value in data set [7] is given as “Inactive”. Moreover, the “CYP2D6 AC50” value in data set [2] was “Inactive”. The “CYP3A4 AC50” value in data set [3] was “Inactive”. In addition, the values for the AC50 in data set [4] and in data set [6] were 47.7 µM and 9.09 µM, respectively.
With `COc1cccc(O)c1` [3-Methoxyphenol], the “CYP2C19 AC50” value in data set [1] is “Inactive”. The “CYP2D6 AC50” value in data set [2] is “Inactive”. The “CYP3A4 AC50” value in data set [3] was “Inactive”. Moreover, the AC50 worked out at 49.3 µM in data set [4] and 40.4 µM in data set [5].
As for `O=[N+]([O-])c1ccc(O)cc1C(F)(F)F` [3-Trifluoromethyl-4-nitrophenol], the “CYP2D6 AC50” value in data set [2] is on record as “Inconclusive inhibitor”. Also, the “CYP3A4 AC50” value in data set [3] is “Inconclusive inhibitor”. In addition, the AC50 in data set [4] (setting [9]) was found to be 56.6 µM; in data set [5] (setting [10]), 34.1 µM; in data set [6] (setting [11]), 27.9 µM.
Turning to `CCc1cc(Cc2cc(CC)c(N)c(CC)c2)cc(CC)c1N` [4,4'-Methylenebis(2,6-diethylaniline)], the “Luciferase IC50” value in data set [8] is “Inactive”.
For `CCC(C)c1ccc(O)cc1` (centres unmarked) [4-(Butan-2-yl)phenol], in data set [2], the “CYP2D6 AC50” value was “Inactive”. For the same compound, the “CYP3A4 AC50” value in data set [3] is given as “Inactive”. In addition, the results for the AC50 in data set [4] (setting [9]), in data set [5] (setting [10]) and in data set [6] (setting [11]) were 34.6 µM, 33.4 µM and 3.47 µM, respectively.
As for `CCN(CC)c1ccc(C=O)cc1` [4-(Diethylamino)benzaldehyde], the “CYP2D6 AC50” value in data set [2] is “Inconclusive inhibitor”. In addition, the “CYP3A4 AC50” value in data set [3] was “Inactive”. Moreover, the AC50 in data set [4] was 5.66 µM; in data set [5] it was 20.1 µM; in data set [6], 14.3 µM.
Turning to `Cc1cc(O)cc(C)c1Cl` [4-Chloro-3,5-dimethylphenol], the “CYP2C19 AC50” value in data set [1] was “Inconclusive inhibitor”. Also, the “CYP2D6 AC50” value in data set [2] is given as “Inactive”. In addition, the “CYP3A4 AC50” value in data set [3] is listed as “Inactive”. In addition, the AC50 turned out to be 14.2 µM in data set [4] (setting [9]) and 17.4 µM in data set [5] (setting [10]).
Regarding `Cc1cc(=O)oc2cc(O)ccc12` [4-Methylumbelliferone], the “CYP2C19 AC50” value in data set [1] is recorded as “Inactive”. The “CYP2D6 AC50” value in data set [2] was “Inactive”. For the same compound, the “CYP3A4 AC50” value in data set [3] was “Inactive”. Besides, the AC50 in data set [4] (setting [9]) was 28.6 µM; in data set [5] (setting [10]), 14.6 µM.
Take `CC(C)(C)c1ccc(OC(=O)c2ccccc2O)cc1` [4-tert-Butylphenyl salicylate]: in data set [2], the “CYP2D6 AC50” value was “Inactive”. Further, in data set [3], the “CYP3A4 AC50” value is “Inactive”. For the same compound, the AC50 was determined as 40.1 µM in data set [4], 24.7 µM in data set [5] and 14.2 µM in data set [6].
As to `O=[N+]([O-])c1ccc2c3c(cccc13)CC2` [5-Nitroacenaphthene], in data set [2], the “CYP2D6 AC50” value is listed as “Inactive”. The “CYP3A4 AC50” value in data set [3] is listed as “Inconclusive inhibitor”. For the same compound, the AC50 in data set [4] (setting [9]) amounted to 2.25 µM; in data set [5] (setting [10]), 8.98 µM; in data set [6] (setting [11]), 33.6 µM.
For `C[C@]12CC[C@@H]3c4ccc(O)cc4CC[C@H]3[C@@H]1CC[C@@H]2O` [17beta-Estradiol], the “CYP2D6 AC50” value in data set [2] is reported as “Inactive”. Besides, in data set [3], the “CYP3A4 AC50” value is given as “Inconclusive activator”. Moreover, the AC50 in data set [4] (setting [9]) amounted to 29.1 µM; in data set [5] (setting [10]), 5.72 µM; in data set [6] (setting [11]), 16.8 µM.
For `CCNc1nc(NC(C)C)nc(OC)n1` [Atraton], in data set [2], the “CYP2D6 AC50” value was “Inactive”. Moreover, the “CYP3A4 AC50” value in data set [3] is listed as “Inconclusive inhibitor”. The AC50 in data set [4] (setting [9]) worked out at 28.4 µM; in data set [5] (setting [10]), 38.5 µM; in data set [6] (setting [11]) it was 32.1 µM.
As for `Oc1ccc(Cc2ccc(O)cc2)cc1` [Bis(4-hydroxyphenyl)methane], the “CYP2C19 AC50” value in data set [1] was “Inconclusive inhibitor”. Besides, in data set [2], the “CYP2D6 AC50” value was “Inconclusive inhibitor”. The “CYP3A4 AC50” value in data set [3] was “Inconclusive inhibitor”. Besides, the AC50 in data set [4] (setting [9]) was 38.8 µM; in data set [5] (setting [10]), 11.8 µM.
For the compound `Nc1c(Cl)cc([N+](=O)[O-])cc1Cl` [Dicloran], in data set [2], the “CYP2D6 AC50” value is reported as “Inactive”. Also, the “CYP3A4 AC50” value in data set [3] was “Inactive”. Moreover, the values for the AC50 in data set [4] (setting [9]), in data set [5] (setting [10]) and in data set [6] (setting [11]) were 2.84 µM, 17.9 µM and 55.8 µM, respectively.
Take `C[C@]12CC[C@@H]3c4ccc(O)cc4CC[C@H]3[C@@H]1C[C@@H](O)[C@@H]2O` [Estriol]: in data set [2], the “CYP2D6 AC50” value is listed as “Inactive”. Further, in data set [3], the “CYP3A4 AC50” value is on record as “Inactive”. In addition, the AC50 in data set [4] (setting [9]) was found to be 34.4 µM; in data set [5] (setting [10]), 21 µM; in data set [6] (setting [11]), 31.2 µM.
Turning to `COc1ccccc1OC(=O)Oc1ccccc1OC` [Guaiacol carbonate], the “CYP2D6 AC50” value in data set [2] is “Inactive”. In addition, in data set [3], the “CYP3A4 AC50” value was “Inactive”. In addition, the AC50 in data set [4] amounted to 6.41 µM; in data set [5], 14.9 µM; in data set [6], 9.77 µM.
In the case of `COC(=O)Nc1nc2ccc(C(=O)c3ccccc3)cc2[nH]1` [Mebendazole], the “CYP2C19 AC50” value in data set [1] was “Inactive”. In addition, in data set [2], the “CYP2D6 AC50” value was “Inactive”. The “CYP3A4 AC50” value in data set [3] is listed as “Inactive”. Also, the AC50 stood at 14 µM in data set [4] (setting [9]) and 3.89 µM in data set [5] (setting [10]).
For the compound `COC(=O)c1ccc(O)cc1` [Methylparaben], the “CYP2C19 AC50” value in data set [1] is “Inactive”. Besides, the “CYP2D6 AC50” value in data set [2] is “Inactive”. Moreover, the “CYP3A4 AC50” value in data set [3] is “Inactive”. Also, the figures for the AC50 in data set [4] (setting [9]) and in data set [5] (setting [10]) were 20.8 µM and 17.4 µM, respectively.
With `NC(=O)Cc1cccc(C(=O)c2ccccc2)c1N` [Nepafenac], the “CYP2D6 AC50” value in data set [2] is “Inactive”. Besides, the “CYP3A4 AC50” value in data set [3] is recorded as “Inactive”. Moreover, the results for the AC50 in data set [4] (setting [9]), in data set [5] (setting [10]) and in data set [6] (setting [11]) were 14.4 µM, 25.3 µM and 29.9 µM, respectively.
For the compound `COC(=O)Nc1nc2ccc(C(=O)c3cccs3)cc2[nH]1` [Nocodazole], in data set [1], the “CYP2C19 AC50” value is given as “Inconclusive inhibitor”. Moreover, the “CYP2D6 AC50” value in data set [2] is reported as “Inconclusive inhibitor”. Besides, the “CYP3A4 AC50” value in data set [3] is recorded as “Inactive”. In addition, the AC50 in data set [4] (setting [9]) turned out to be 15.2 µM; in data set [5] (setting [10]) it was 4.43 µM.
For the compound `CCNc1nc(NC(C)CC)nc(OC)n1` (centres unmarked) [Secbumeton], the “CYP2D6 AC50” value in data set [2] is listed as “Inactive”. For the same compound, the “CYP3A4 AC50” value in data set [3] was “Inactive”. Also, the AC50 in data set [4] turned out to be 26.2 µM; in data set [5] it was 43.5 µM; in data set [6], 26.4 µM.
As to `CCNc1nc(Cl)nc(NCC)n1` [Simazine], in data set [1], the “CYP2C19 AC50” value is reported as “Inactive”. Besides, the “CYP2D6 AC50” value in data set [2] was “Inconclusive inhibitor”. For the same compound, in data set [3], the “CYP3A4 AC50” value was “Inactive”. For the same compound, the AC50 was found to be 7.9 µM in data set [4] (setting [9]) and 5.09 µM in data set [5] (setting [10]).

Usually AC50 stands for the concentration at which the activity in the assay is half-maximal. High values mean weaker potency, low ones greater potency.
